What was measured:
[1] = Viscosity of eye drops by rotational rheometer; assay type: physicochemical; conditions: shear rate 100 (1/s)
Text: Based on the above information, sodium hyaluronate was set as the viscosity reagent.

[2] = test system: BALB/3T3 clone A31 cells; experiment: cells; assay type: cell-based
Description: To evaluate the phototoxicity of (PEG)-BHD1028, the potential phototoxicity of (PEG)-BHD1028 was measured in the BALB/3T3 clone A31 cells after UV exposure. The test substance and the positive control group (chlorpromazine hydrochloride; CPZ) were dissolved in a Hank's Balanced Salt Solution (HBSS) and then diluted with a Hank's Balanced Salt Solution (HBSS). The cells were trypsinized and counted. Thereafter, 1×10^4 cells per well were seeded in a 96-well plate and cultured for approximately 24 hours before treating the test samples. One hour after the sample treatment, the plate was irradiated with a UV irradiation system (UVA, 365 nm). After UV irradiation, the plate was incubated for 24 hours. The cell viability of the cultured cells was confirmed by measuring the absorbance at 540 nm using the neutral red staining method.

[3] = Stability of eye drop formulations stored at 40° C., RP-HPLC; assay type: physicochemical
Description: Eye drops using (PEG)-BHD1028 were prepared by setting eye characteristics, pH, osmolarity, and viscosity as important parameters. To adjust the above parameters, various reagents and substances were added to the test formulation, which was stored at 40° C. to confirm the stability of the formulation. In addition, the reagents used in the target preparation were mainly determined by considering the stability of the drug and the suitability of the manufacturing process. The stability of the formulation was determined based on the RP-HPLC analysis data. The shelf life was set as the period before a single impurity reached 1.0 area %, reflecting the mean kinetic temperature (MKT).
The shelf life was calculated based on the stability data reflecting the mean kinetic temperature (MKT). […] Based on this calculation, the lifespan was calculated by multiplying the number of days immediately before the area % of a single impurity reached 1.0% by a factor of 5. The target shelf life was set at 6 months or longer at 25° C., and the stability of the trehalose-only formulation is expected to have a shelf life of about 7 months.

[4] = test system: mouse experimental dry eye (EDE) model; experiment: Tear volume, phenol red thread test, EDE mouse model; assay type: in vivo
Description: To confirm the pharmacological effect and appropriate dosage, a pilot study was first conducted with the mice. In addition, a rabbit DED (Dry Eye Disease) model with a large exposed facial area was evaluated in comparison with a mouse model. In the mouse experimental dry eye (EDE) model, scopolamine hydrobromide (Sigma-Aldrich. St. Louis, MO, USA) was subcutaneously injected three times a day (9 a.m., 1:30 p.m., 6 p.m.) in a room exposed to ventilation with an ambient humidity of less than 40% at 25±2° C. to induce DED.
The mice were randomly divided into five groups: (1) EDE (experimental dry eye) control mice without eye drops administration, (2) EDE mice treated with a vehicle (phosphate-buffered saline), (3) EDE mice treated with 0.001% (PEG)-BHD1028 (4) EDE mice treated with 0.01% (PEG)-BHD1028, and (5) EDE mice treated with 0.1% (PEG)-BHD1028. All the treatment groups received 2 μL of eye drops three times a day.
The tear secretion was measured for 20 seconds by contacting a cotton thread containing phenol red (Zone-Quick™; Oasis Medical, Inc., Glendora, CA, USA) to the conjunctival sac on the lateral canthus of the mouse eye. After measuring the length using a Nikon SMZ1500 microscope, the length substituted to the prescribed formula, and the value was converted to volume. The tear production of the rabbits was measured by a modified Schirmer tear test using Whatman 41 filter paper strips (Tianjin Jingming New Technology Development Co., Ltd., Tianjin, China) on Day 0, Day 5, and Day 10. Eye examination of the rabbits was performed under anesthesia. The anesthesia was performed under sedation by performing intramuscular injection of xylazine (3 mg/kg, Rompun®; Bayer Korea, Korea) and intramuscular injection of 10 mg/kgtiletamine/zolazepam (Zoletil®, Virbac Laboratories, Carros, France). After adding 1 drop of proparacaine HCl 0.5% (Alcaine®, Alcon Korea Ltd., Seoul, Korea), excess tears and eye drops were removed with Weck-cel® […]. The wet length (mm) of the paper strip was read after 5 minutes.
The tear volume of the mice was measured using the Phenol Red Thread (PRT) test on Day 5 and Day 10 after the treatment.

[5] = test system: CD11b+ monocytes; experiment: CD11b+ monocytes by flow cytometry, EDE mouse model; assay type: in vivo; conditions: for geometric mean number of CD11b+ monocytes: cornea
Description: The cornea, conjunctiva, and each tissue required for analysis were excised with scissors, incised, and shaken with 0.5 mg/mL collagenase type D at 37° C. for 1 hour. After pulverizing the tissue, the resulting mixture was passed through a cell strainer, centrifuged, and resuspended in phosphate-buffered saline containing 1% bovine serum albumin.
In DED, corneal barrier destruction and epithelial cell loss are accompanied by bone marrow and T cell infiltration. Activated T lymphocytes are the primary producers of Th-1 cytokines and interferon (IFN)-γ, which promote cell death at the ocular surface. To evaluate the anti-inflammatory effect of (PEG)-BHD1028 in the EDE mouse model, immune cells that play the role of inflammatory cell surface markers were quantified by flow cytometry with one animal per group.

With “NH2-Tyr-Tyr-Phe-Ala-Tyr-His-Pro-Asn-Ile-Pro-Gly-Leu-Tyr-Tyr-Phe-COOH (H-YYFAYHPNIPGLYYF-OH; also: PEGylated, site not given here (mPEG), acetate salt) [(PEG)-BHD1028]” the “viscosity, Test result” value ([1]; concentration 0.5%) was 0.009 Pa · S, the “viscosity, Test result” value ([1]; concentration 1.5%) was 0.010 Pa · S and the “viscosity, Test result” value ([1]; concentration 4.5%) was 0.014 Pa · S. For the same substance, the “MPE (mean photo effect)” value [2] was 0.003, the “PIF (photo irradiation factor)” value [2] was 1.000 and the “phototoxicity classification by PIF and MPE” value [2] was “non-phototoxic”. For the same substance, the “IC50 UV (+Irr)” value ([2]; BALB/3T3 clone A31 cells, UVA 365 nm irradiation, neutral red) was over 1000 µg/mL, the “IC50 UV (−Irr)” value ([2]; BALB/3T3 clone A31 cells, without UV irradiation, neutral red) was over 1000 µg/mL and the formulation stability ([3]; eye drops with sodium EDTA (0.5%), 40° C. for 25 days) was “stability was maintained”. For the same substance, the “formulation stability (impurities)” value ([3]; eye drops with sodium bisulfate (0.03%), Day 7 at 40° C.) was “impurities rapidly increased”, the impurities ([3]; eye drops with sodium hyaluronate 0.1%, 40° C. for 37 days, all impurities) was “less than 1.0 area %” and the “formulation stability and pH, water versus PBS as diluent” value ([3]; eye drops, between the two formulations) was “no significant difference in stability data and pH”. The formulation stability ([3]; formulations including PEG (PEG400, PEG5000, PEG3350) as osmotic reagent) was “considerably decomposed”, the formulation stability ([3]; formulations including salts such as KCl and NaCl, Day 6 at 40° C.) was “considerably decomposed” and the formulation stability ([3]; mannitol, trehalose, or a combination of mannitol and trehalose as osmotic reagent) was “stable”. It also gave a Tear volume ([4]; 0.001% eye drops three times a day, Day 5) of 0.024 ± 0.003 µL, a Tear volume ([4]; 0.001% eye drops three times a day, Day 10) of 0.021 ± 0.002 µL and a Tear volume ([4]; 0.01% eye drops three times a day, Day 5) of 0.026 ± 0.003 µL. For the same substance, the Tear volume ([4]; 0.01% eye drops three times a day, Day 10) was 0.027 ± 0.003 µL, the Tear volume ([4]; 0.1% eye drops three times a day, Day 5) was 0.028 ± 0.002 µL and the Tear volume ([4]; 0.1% eye drops three times a day, Day 10) was 0.032 ± 0.004 µL. For the same substance, the “number of CD11b+ monocytes” value ([5]; conjunctiva, 0.001%) was 352.09, the “number of CD11b+ monocytes” value ([5]; conjunctiva, 0.01%) was 330.48 and the “number of CD11b+ monocytes” value ([5]; conjunctiva, 0.1%) was 36.35. The “geometric mean number of CD11b+ monocytes” value (from here on “geometric mean number”) ([5]; 0.001%) was 178.06, the “geometric mean number” value ([5]; 0.01%) was 131.59 and the “geometric mean number” value ([5]; 0.1%) was 126.25. The “number of CD11b+ monocytes” value ([5]; lacrimal gland, 0.001%) was 84, the “number of CD11b+ monocytes” value ([5]; lacrimal gland, 0.01%) was 74.60 and the “number of CD11b+ monocytes” value ([5]; lacrimal gland, 0.1%) was 60.48.

— US20240408167A1, “COMPOSITION FOR TREATING OCULAR DISEASES CONTAINING PEPTIDE” (Encuragen Inc., priority 2023, published 2024)
